According to article PMC5101480 (Scientific Reports, 2016):
One block for each molecule: values may come before it.

Legend:
[1] = system: OP91 in HeLa TRex Flp-In cells; test: Steady state OP91 (model MLP) levels on co-expression, quantitative western blotting; type: cell-based; conditions: co-expression of SGTA-V5 compared with K160E/R164E mutant or PEX19 control; normalised to tubulin; n = 3; 24 h transfection, 24 h induction
Excerpt: However, the ability of exogenous SGTA to enhance steady state MLP levels is offset when key residues of the carboxylate clamp, located in its TPR domain, are mutated. […] These finding are consistent with the proposal that a TPR based interaction of exogenous SGTA contributes to its effects on steady state MLP levels. […]
Figure 5 The SGTA-Rpn13 interaction alters steady state levels of a model MLP. […] Cells were then harvested directly into sample buffer and analysed by western blotting using primary antibodies to the N-terminus of opsin (OP91), the V5 tag (PEX19 and SGTA) or tubulin (loading control) in combination with secondary antibodies labelled with infrared dyes (LiCor) in order to produce quantitative signals as previously described. (B) OP91 signals were quantified (see Materials and Methods) and normalised to the tubulin loading control, values show standard errors for n = 3. […] (F) OP91 signals were quantified as described for (B), values show standard errors for n = 3. […]

[2] = system: OP91 in HeLa TRex Flp-In cells; conditions: overexpression of exogenous SGTA, model MLPs including OP91; cited from earlier work
Excerpt: However, the ability of exogenous SGTA to enhance steady state MLP levels is offset when key residues of the carboxylate clamp, located in its TPR domain, are mutated. We recapitulated this experiment ...

[3] = biological target: T1, TPR domain of SGTA (SGTA_TPR) (Homo sapiens, UniProt O43765); test: Paramagnetic relaxation enhancement (PRE) of 15N-labelled SGTA_TPR by MTSL labelled K398C Rpn13_260-407; type: binding; conditions: MTSL at K398C; 15N-labelled SGTA_TPR to spin labelled Rpn13 1:1.2; pH 6.0; residues Met-102, Lys-103, Glu-105, Lys-137, Ser-170, Asn-173, Ser-197, Lys-200, Ile-201, Glu-203, Ser-211
T1 construct: thioredoxin A (TxA) fusion (N, cleaved yes); hexahistidine tag (N, cleaved yes); made in house; host or cells: E. coli BL21(DE3) Rosetta
Method: Using CSP experiments combined with available mutagenesis data, an initial model of a 1:1 complex was generated by a HADDOCK based semi-rigid, data-driven approach using the DMSLD pentapeptide coordinates from the solution NMR structure of Rpn13 (PDB accession code: 2KR0) and the crystal structure of SGTA_TPR (PDB accession code: 2VYI). The three lowest energy HADDOCK clusters of the SGTA_TPR/DMSLD complex were analysed (Figure S7 and Table S1). […] Proximity dependent line broadening of ^15N-labelled SGTA_TPR backbone amide signals was monitored for intermolecular paramagnetic relaxation enhancement (PRE) effects upon addition of MTSL labelled K398C Rpn13_260-407 (Fig. 4B). Significant line broadening effects were observed upon binding in backbone amide peaks of SGTA_TPR residues Met-102, Lys-103, Glu-105, Lys-137, Ser-170, Asn-173, Ser-197, Lys-200, Ile-201, Glu-203, Ser-211, all present on the lower edge of its concave surface lining the entry to the central groove (Fig. 4C,D).
The Rpn13 C-terminal residue Lys 398 was mutated to a cysteine for paramagnetic spin labelling studies. Mutant Rpn13_260-407 was treated with excess TCEP for 2 hours to ensure cysteines were reduced, followed by dialysis against 10 mM potassium phosphate pH 6.0, 100 mM NaCl buffer to remove excess TCEP. […]

T1 sequence (O43765 84-211): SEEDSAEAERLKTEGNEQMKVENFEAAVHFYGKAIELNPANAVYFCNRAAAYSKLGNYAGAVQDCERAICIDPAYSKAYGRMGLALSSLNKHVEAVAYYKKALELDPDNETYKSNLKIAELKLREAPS

Molecule: SGTA-V5: exogenous V5-tagged SGTA overexpressed from plasmid
change in steady state OP91 level [1]: three-fold increase | steady state MLP levels, earlier studies [2]: typically increases the steady-state levels of model MLPs

distance of paramagnetic probe from SGTA_TPR residues with significant line broadening [3]: ≤ 20 Å
B1: K398C Rpn13_260-407: Rpn13_260-407 K398C mutant carrying site-directed paramagnetic spin-label (MTSL) (protein, UniProt Q16186 260-407, looked up, variant K398C)
chain: QPIQLSDLQSILATMNVPAGPAGGQQVDLASVLTPEIMAPILANADVQERLLPYLPSGESLPQTADEIQNTLTSPQFQQALGMFSAALASGQLGPLMCQFGLPAEAVEAANKGDVEAFAKAMQNNAKPEQKEGDTKDKCDEEEDMSLD
modifications: MTSL spin label
